# What was measured:
# Assay in all cases: biochemical
# Type in all cases: binding
# Nluc-A3AR S271A^7.42 = molecular target: T1, Nluc-A3AR S271A^7.42 (Homo sapiens, UniProt P0DMS8, S271A)
# T1 construct: expressed in transfected cells; host or cells: HEK293a
# Method: (§1) All experiments were performed in duplicate.
# (§2) Data were expressed as the mean ± standard error. All binding and Trupath data were analysed using the nonlinear regression curve-fitting programme with Prism 10 (GraphPad, San Diego, CA, USA). For nanoBRET saturation binding experiments, specific binding was calculated by subtracting non-specific binding (defined as binding in the presence of 10 µM MRS1220) from total binding. Specific binding data in each experiment were then normalised to the maximal binding (Bmax) of WT and fit to a one-site specific binding equation: Y =Bmax*[X]/(Kd + [X]). For nanoBRET competition binding experiments, data were normalised to total and non-specific binding responses and fit to a one-site—Fit Ki equation. […] Significant differences vs WT were determined by one-way ANOVA with a Dunnett’s multiple comparison test.
# Nluc-A3AR WT = molecular target: T2, Nluc-A3AR WT (Homo sapiens, UniProt P0DMS8)
# T2 construct: expressed in transfected cells; host or cells: HEK293a
# Method: as §1, §2
# Nluc-A3AR H95F^3.37 = molecular target: T3, Nluc-A3AR H95F^3.37 (Homo sapiens, UniProt P0DMS8, H95F)
# T3 construct: expressed in transfected cells; host or cells: HEK293a
# T3 sequence (P0DMS8 whole entry H95F): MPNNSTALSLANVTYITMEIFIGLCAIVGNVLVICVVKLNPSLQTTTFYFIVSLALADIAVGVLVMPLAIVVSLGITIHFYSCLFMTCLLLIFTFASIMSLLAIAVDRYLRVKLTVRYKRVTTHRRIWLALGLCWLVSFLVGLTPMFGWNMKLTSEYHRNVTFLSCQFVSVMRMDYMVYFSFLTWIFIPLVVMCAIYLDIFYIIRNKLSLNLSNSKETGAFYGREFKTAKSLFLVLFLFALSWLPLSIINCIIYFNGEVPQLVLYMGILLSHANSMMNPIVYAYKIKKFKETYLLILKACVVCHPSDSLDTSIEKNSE
# Method: as §1
# (§3) Data were expressed as the mean ± standard error. All binding and Trupath data were analysed using the nonlinear regression curve-fitting programme with Prism 10 (GraphPad, San Diego, CA, USA). For nanoBRET saturation binding experiments, specific binding was calculated by subtracting non-specific binding (defined as binding in the presence of 10 µM MRS1220) from total binding. Specific binding data in each experiment were then normalised to the maximal binding (Bmax) of WT and fit to a one-site specific binding equation: Y =Bmax*[X]/(Kd + [X]). For nanoBRET competition binding experiments, data were normalised to total and non-specific binding responses and fit to a one-site—Fit Ki equation. Trupath's experimental data was baseline-corrected to the initial four baseline reads and then adjusted to the buffer control response. The area under the curve (AUC) for each response was calculated and plotted with a non-linear regression curve (log[agonist] vs response, three-parameter model), using the equation: Y = Bottom + (Top–Bottom)/(1 + 10^((LogEC50-X))). Here, X represents the log dose of the agonist, Y is the BRET2 AUC response, Top and Bottom are the curve plateaus, and EC50 is the agonist concentration yielding a response halfway between the Bottom and Top values. […] Significant differences vs WT were determined by one-way ANOVA with a Dunnett’s multiple comparison test. Significance levels are indicated as follows: P ≤ 0.0001****, P = 0.0001–0.001***, P = 0.001–0.01**, and P = 0.01–0.05*.
# Nluc-A3AR Y15A^1.35 = molecular target: T4, Nluc-A3AR Y15A^1.35 (Homo sapiens, UniProt P0DMS8, Y15A)
# T4 construct: expressed in transfected cells; host or cells: HEK293a
# T4 sequence (P0DMS8 whole entry Y15A): as the sequence (P0DMS8 whole entry H95F) above, with Y15A, F95H counted along it
# Method: as §1
# (§4) Data were expressed as the mean ± standard error. All binding and Trupath data were analysed using the nonlinear regression curve-fitting programme with Prism 10 (GraphPad, San Diego, CA, USA). For nanoBRET saturation binding experiments, specific binding was calculated by subtracting non-specific binding (defined as binding in the presence of 10 µM MRS1220) from total binding. Specific binding data in each experiment were then normalised to the maximal binding (Bmax) of WT and fit to a one-site specific binding equation: Y =Bmax*[X]/(Kd + [X]). For nanoBRET competition binding experiments, data were normalised to total and non-specific binding responses and fit to a one-site—Fit Ki equation. Trupath's experimental data was baseline-corrected to the initial four baseline reads and then adjusted to the buffer control response. The area under the curve (AUC) for each response was calculated and plotted with a non-linear regression curve (log[agonist] vs response, three-parameter model), using the equation: Y = Bottom + (Top–Bottom)/(1 + 10^((LogEC50-X))). Here, X represents the log dose of the agonist, Y is the BRET2 AUC response, Top and Bottom are the curve plateaus, and EC50 is the agonist concentration yielding a response halfway between the Bottom and Top values. […] The efficacy of the agonists (τA) was separately calculated using the Black–Leff operational model of agonism[79] using KA values from Table 2 and then corrected for receptor expression relative to WT using Bmax values from Table 1[80]. Significant differences vs WT were determined by one-way ANOVA with a Dunnett’s multiple comparison test.
# Nluc-A3AR T94A^3.36 = molecular target: T5, Nluc-A3AR T94A^3.36 (Homo sapiens, UniProt P0DMS8, T94A)
# T5 construct: expressed in transfected cells; host or cells: HEK293a
# T5 sequence (P0DMS8 whole entry T94A): as the sequence (P0DMS8 whole entry H95F) above, with T94A, F95H counted along it
# Method: as §1, §4
# Nluc-A3AR M174A^5.35 = molecular target: T6, Nluc-A3AR M174A^5.35 (Homo sapiens, UniProt P0DMS8, M174A)
# T6 construct: expressed in transfected cells; host or cells: HEK293a
# T6 sequence (P0DMS8 whole entry M174A): as the sequence (P0DMS8 whole entry H95F) above, with F95H, M174A counted along it
# Method: as §1, §4
# Nluc-A3AR H95A^3.37 = molecular target: T7, Nluc-A3AR H95A^3.37 (Homo sapiens, UniProt P0DMS8, H95A)
# T7 construct: expressed in transfected cells; host or cells: HEK293a
# T7 sequence (P0DMS8 whole entry H95A): as the sequence (P0DMS8 whole entry H95F) above, with F95A counted along it
# Method: as §1, §3
# Nluc-A3AR S73A^2.65 = molecular target: T8, Nluc-A3AR S73A^2.65 (Homo sapiens, UniProt P0DMS8, S73A)
# T8 construct: expressed in transfected cells; host or cells: HEK293a
# T8 sequence (P0DMS8 whole entry S73A): as the sequence (P0DMS8 whole entry H95F) above, with S73A, F95H counted along it
# Method: as §1, §2
# Nluc-A3AR Y265A^7.36 = molecular target: T9, Nluc-A3AR Y265A^7.36 (Homo sapiens, UniProt P0DMS8, Y265A)
# T9 construct: expressed in transfected cells; host or cells: HEK293a
# T9 sequence (P0DMS8 whole entry Y265A): as the sequence (P0DMS8 whole entry H95F) above, with F95H, Y265A counted along it
# Method: as §1, §4
# Nluc-A3AR V169E^45.53 = molecular target: T10, Nluc-A3AR V169E^45.53 (Homo sapiens, UniProt P0DMS8, V169E)
# T10 construct: expressed in transfected cells; host or cells: HEK293a
# T10 sequence (P0DMS8 whole entry V169E): as the sequence (P0DMS8 whole entry H95F) above, with F95H, V169E counted along it
# Method: as §1, §3
# T1 sequence (P0DMS8 whole entry S271A): as the sequence (P0DMS8 whole entry H95F) above, with F95H, S271A counted along it
# T2 sequence (P0DMS8 whole entry): as the sequence (P0DMS8 whole entry H95F) above, with F95H counted along it
structure (smiles),measurement,setting,value
CCCn1c(=O)c2c(nc3cc(OC)ccn32)n(CCCCNC(=O)c2ccc(S(=O)(=O)F)cc2)c1=O [LUF7602],ΔpKi relative to WT,Nluc-A3AR S271A^7.42; S271A,0.423
same,pKi,"Nluc-A3AR S271A^7.42; S271A, 40 nM XAC-630",7.9 ± 0.09 (3)
same,remaining activity at 60.26 pM,"Nluc-A3AR S271A^7.42; read-out: normalised XAC-630 binding, S271A, log[LUF7602] -10.22 M",100%
same,remaining activity at 0.6026 µM,"Nluc-A3AR S271A^7.42; read-out: normalised XAC-630 binding, S271A, log[LUF7602] -[…]",5.71%
same,pKi,Nluc-A3AR WT; WT,7.5 ± 0.05 (4)
same,ΔpKi relative to WT,Nluc-A3AR WT; WT,0
same,pKi Mean (Figure S2H),"Nluc-A3AR WT; WT, n 3",7.306
same,"XAC-630 NanoBRET binding, normalised (Figure S2H), individual replicates","Nluc-A3AR WT; log LUF7602 -5, A3AR-WT",0
same,normalised XAC-630 binding at 10 µM,"Nluc-A3AR WT; read-out: XAC-630 NanoBRET binding, normalised (Figure S2H), individual replicates, log LUF7602 -5, A3AR-WT",0%
same,normalised XAC-630 binding at 0.1 µM,"Nluc-A3AR WT; read-out: XAC-630 NanoBRET binding, normalised (Figure S2H), individual replicates, log LUF7602 -7, A3AR-WT",59.3%
same,normalised XAC-630 binding at 0.01 µM,"Nluc-A3AR WT; read-out: XAC-630 NanoBRET binding, normalised (Figure S2H), individual replicates, log LUF7602 -8, A3AR-WT",78%
same,normalised XAC-630 binding at 0.0001 µM,"Nluc-A3AR WT; read-out: XAC-630 NanoBRET binding, normalised (Figure S2H), individual replicates, log LUF7602 -10, A3AR-WT",89.4%
same,normalised XAC-630 binding at 0.06026 µM,"Nluc-A3AR WT; read-out: normalised XAC-630 binding, WT, log[LUF7602] -7.22 M",69.6%
same,normalised XAC-630 binding at 0.006026 µM,"Nluc-A3AR WT; read-out: normalised XAC-630 binding, WT, log[LUF7602] -8.22 M",96.8%
same,normalised XAC-630 binding at 0.0006026 µM,"Nluc-A3AR WT; read-out: normalised XAC-630 binding, WT, log[LUF7602] -9.22 M",90.4%
same,normalised XAC-630 binding at 60.26 pM,"Nluc-A3AR WT; read-out: normalised XAC-630 binding, WT, log[LUF7602] -10.22 M",100%
same,pKi,Nluc-A3AR H95F^3.37; H95F,6.4 ± 0.09 (3)
same,reduction of binding affinity vs WT,Nluc-A3AR H95F^3.37; H95F,~ 10 fold
same,ΔpKi relative to WT,Nluc-A3AR H95F^3.37; H95F,-1.06
same,remaining activity at 0.006026 µM,"Nluc-A3AR H95F^3.37; read-out: normalised XAC-630 binding, H95F, log[LUF7602] -8.22 M",88.8%
same,remaining activity at 60.26 pM,"Nluc-A3AR H95F^3.37; read-out: normalised XAC-630 binding, H95F, log[LUF7602] -10.22 M",100%
same,remaining activity at 0.6026 µM,"Nluc-A3AR H95F^3.37; read-out: normalised XAC-630 binding, H95F, log[LUF7602] -[…]",47%
same,pKi,Nluc-A3AR Y15A^1.35; Y15A,6.6 ± 0.2 (4)
same,reduction of binding affinity vs WT,Nluc-A3AR Y15A^1.35; Y15A,10 fold
same,ΔpKi relative to WT,Nluc-A3AR Y15A^1.35; Y15A,-0.882
same,remaining activity at 60.26 pM,"Nluc-A3AR Y15A^1.35; read-out: normalised XAC-630 binding, Y15A, log[LUF7602] -10.22 M",100%
same,pKi,Nluc-A3AR T94A^3.36; T94A,7.3 ± 0.05 (3)
same,ΔpKi relative to WT,Nluc-A3AR T94A^3.36; T94A,-0.208
same,remaining activity at 0.06026 µM,"Nluc-A3AR T94A^3.36; read-out: normalised XAC-630 binding, T94A, log[LUF7602] -7.22 M",77.1%
same,remaining activity at 0.006026 µM,"Nluc-A3AR T94A^3.36; read-out: normalised XAC-630 binding, T94A, log[LUF7602] -8.22 M",100%
same,remaining activity at 0.0006026 µM,"Nluc-A3AR T94A^3.36; read-out: normalised XAC-630 binding, T94A, log[LUF7602] -9.22 M",87.2%
same,remaining activity at 60.26 pM,"Nluc-A3AR T94A^3.36; read-out: normalised XAC-630 binding, T94A, log[LUF7602] -10.22 M",100%
same,pKi,Nluc-A3AR M174A^5.35; M174A,6.5 ± 0.09 (3)
same,reduction of binding affinity vs WT,Nluc-A3AR M174A^5.35; M174A,10 fold
same,ΔpKi relative to WT,Nluc-A3AR M174A^5.35; M174A,-0.957
same,remaining activity at 0.06026 µM,"Nluc-A3AR M174A^5.35; read-out: normalised XAC-630 binding, M174A, log[LUF7602] -7.22 M",96.7%
same,remaining activity at 0.0006026 µM,"Nluc-A3AR M174A^5.35; read-out: normalised XAC-630 binding, M174A, log[LUF7602] -9.22 M",112%
same,remaining activity at 60.26 pM,"Nluc-A3AR M174A^5.35; read-out: normalised XAC-630 binding, M174A, log[LUF7602] -10.22 M",100%
same,remaining activity at 0.6026 µM,"Nluc-A3AR M174A^5.35; read-out: normalised XAC-630 binding, M174A, log[LUF7602] -[…]",44.9%
same,pKi,Nluc-A3AR H95A^3.37; H95A,6.2 ± 0.2 (3)
same,reduction of binding affinity vs WT,Nluc-A3AR H95A^3.37; H95A,~ 10 fold
same,ΔpKi relative to WT,Nluc-A3AR H95A^3.37; H95A,-1.328
same,remaining activity at 0.1 µM,"Nluc-A3AR H95A^3.37; read-out: normalised XAC-630 binding, H95A, log[LUF7602] -7 M",98.1%
same,remaining activity at 0.01 µM,"Nluc-A3AR H95A^3.37; read-out: normalised XAC-630 binding, H95A, log[LUF7602] -8 M",113%
same,remaining activity at 0.001 µM,"Nluc-A3AR H95A^3.37; read-out: normalised XAC-630 binding, H95A, log[LUF7602] -9 M",104%
same,remaining activity at 0.0001 µM,"Nluc-A3AR H95A^3.37; read-out: normalised XAC-630 binding, H95A, log[LUF7602] -10 M",100%
same,pKi,Nluc-A3AR S73A^2.65; S73A,7.2 ± 0.06 (3)
same,ΔpKi relative to WT,Nluc-A3AR S73A^2.65; S73A,-0.31
same,remaining activity at 0.06026 µM,"Nluc-A3AR S73A^2.65; read-out: normalised XAC-630 binding, S73A, log[LUF7602] -7.22 M",71.4%
same,remaining activity at 0.006026 µM,"Nluc-A3AR S73A^2.65; read-out: normalised XAC-630 binding, S73A, log[LUF7602] -8.22 M",90.3%
same,remaining activity at 0.0006026 µM,"Nluc-A3AR S73A^2.65; read-out: normalised XAC-630 binding, S73A, log[LUF7602] -9.22 M",91.8%
same,remaining activity at 60.26 pM,"Nluc-A3AR S73A^2.65; read-out: normalised XAC-630 binding, S73A, log[LUF7602] -10.22 M",100%
same,remaining activity at 0.6026 µM,"Nluc-A3AR S73A^2.65; read-out: normalised XAC-630 binding, S73A, log[LUF7602] -[…]",19.1%
same,pKi,Nluc-A3AR Y265A^7.36; Y265A,6.3 ± 0.07 (3)
same,reduction of binding affinity vs WT,Nluc-A3AR Y265A^7.36; Y265A,15 fold
same,ΔpKi relative to WT,Nluc-A3AR Y265A^7.36; Y265A,-1.2
same,remaining activity at […],"Nluc-A3AR Y265A^7.36; read-out: normalised XAC-630 binding, Y265A, log[LUF7602] -9.5 M",100%
same,pKi,Nluc-A3AR V169E^45.53; V169E,7.2 ± 0.05 (3)
same,ΔpKi relative to WT,Nluc-A3AR V169E^45.53; V169E,-0.293
same,remaining activity at 0.06026 µM,"Nluc-A3AR V169E^45.53; read-out: normalised XAC-630 binding, V169E, log[LUF7602] -7.22 M",87.5%
same,remaining activity at 0.006026 µM,"Nluc-A3AR V169E^45.53; read-out: normalised XAC-630 binding, V169E, log[LUF7602] -8.22 M",97.5%
same,remaining activity at 0.0006026 µM,"Nluc-A3AR V169E^45.53; read-out: normalised XAC-630 binding, V169E, log[LUF7602] -9.22 M",105%
same,remaining activity at 60.26 pM,"Nluc-A3AR V169E^45.53; read-out: normalised XAC-630 binding, V169E, log[LUF7602] -10.22 M",100%
same,remaining activity at 0.6026 µM,"Nluc-A3AR V169E^45.53; read-out: normalised XAC-630 binding, V169E, log[LUF7602] -[…]",17%

# — article PMC12361428 (Nature Communications, 2025)
